The text below walks through data of publication PMC9085577, “Discovery of a Potent and Orally Active Dual GPBAR1/CysLT1R Modulator for the Treatment of Metabolic Fatty Liver Disease” (Frontiers in Pharmacology, 2022).

Values after ≈ are worked out from the molar mass of the structure shown. Values joined by “and” are separate entries in the source; they are usually repeats but may differ in a detail not shown here. Equal entries are not always repeated.

One series deals with T1, human GPBAR1 (Homo sapiens, UniProt Q8TDU6).
T1 construct: expressed in transfected cells; host or cells: HEK-293T cells, transient transfection (Fugene HD)
T1 sequence (Q8TDU6 1-330): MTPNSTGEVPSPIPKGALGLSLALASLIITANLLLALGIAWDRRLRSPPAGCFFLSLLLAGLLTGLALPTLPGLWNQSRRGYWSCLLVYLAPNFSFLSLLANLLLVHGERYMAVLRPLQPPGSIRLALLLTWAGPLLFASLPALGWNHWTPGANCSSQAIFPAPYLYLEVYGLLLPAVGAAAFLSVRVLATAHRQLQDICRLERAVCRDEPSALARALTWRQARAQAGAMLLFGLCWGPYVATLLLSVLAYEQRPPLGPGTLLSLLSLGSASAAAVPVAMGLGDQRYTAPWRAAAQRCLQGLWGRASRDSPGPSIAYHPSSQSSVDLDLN
The series is described as follows: GPBAR1 CRE-luciferase reporter transactivation assay in HEK-293T cells. In kind it is cell-based. Conditions: HEK293T cells. As for the experimental part:
GPBAR1. […] At 18 h post stimulations, cellular lysates were assayed for luciferase and Renilla activities using the Dual-Luciferase Reporter assay system (E1980, Promega Madison WI). Luminescence was measured using Glomax 20/20 luminometer (Promega, Madison WI). Luciferase activities were normalized with Renilla activities.
Agonistic activities of compounds on GPBAR1 were compared to TLCA, which was set as 100%.

For the next series, the target named is T2, Human CysLT1 (LTD4) (Homo sapiens, UniProt Q9Y271).
T2 construct: Eurofins Cerep-Panlabs (France), contract assay
T2 sequence (Q9Y271 1-337): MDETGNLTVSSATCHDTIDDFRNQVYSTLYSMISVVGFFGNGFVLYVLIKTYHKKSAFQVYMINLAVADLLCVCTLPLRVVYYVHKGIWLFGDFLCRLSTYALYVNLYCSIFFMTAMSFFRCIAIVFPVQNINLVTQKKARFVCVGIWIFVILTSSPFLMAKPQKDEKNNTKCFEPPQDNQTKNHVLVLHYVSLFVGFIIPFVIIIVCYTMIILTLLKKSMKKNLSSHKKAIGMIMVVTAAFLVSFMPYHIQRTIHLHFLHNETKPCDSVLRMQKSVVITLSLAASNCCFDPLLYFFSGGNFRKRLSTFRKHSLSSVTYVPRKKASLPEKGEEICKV
Put plainly: Human CysLT1 (LTD4) antagonist effect cellular functional assay (Ca2+ fluorescence, Eurofins Cerep-Panlabs). In kind it is cell-based. Conditions: antagonist effect, 0.1 nM LTD4; read-out: CysLT1R IC50. The method, then:
Human CysLT1 (LTD4) (h) (antagonist effect) Cellular Functional Assay. These assays were performed at Eurofins Cerep-Panlabs (France). The cells were suspended in DMEM buffer (Invitrogen) and then distributed in microplates at a density of 3.104 cells/well. […] Thereafter, the assay plates are positioned in a microplate reader (CellLux, PerkinElmer), which was used for the addition of the test compound or HBSS buffer, then 5 min later, 0.1 nM LTD4 or HBSS buffer (basal control), and measured the changes in fluorescence intensity, which varies proportionally to the free cytosolic Ca^2+-ion concentration.

A short description of series [1]: Aqueous solubility in PBS pH 7.4 by LC-MS/MS. The class given is physicochemical. The method, then: Solubility. Ten microliters of a 10 mM solution of tested compounds were diluted either in 490 µL of PBS pH 7.4 or MeOH and agitated for 24 h at 250 rpm. The obtained solutions were first centrifuged for 5 min at 4,000 rpm and then further diluted adding 10 μL of each sample to 490 µL of MeOH. Samples were analyzed by LC-MS/MS and the ratio of mass signal area obtained in PBS and in organic solvent was then measured and used to determine solubility.

Series [2] can be described thus: Metabolic stability in human liver microsomes. In kind it is in vitro ADME. The method, then: Metabolic Stability. All compounds were tested at the final concentration of 1 µM in a 50 mM potassium phosphate buffer (pH 7.4) containing 1% DMSO as vehicle. For microsomes assay, the incubation mixtures contained 0.15 mg of Human liver microsomes (Sigma-Aldrich, St. Louis, MO, United States), 5 mM MgCl2, 1 mM NADPH, 5 mM glucose 6-phosphate, 0.4 U mL^−1 glucose 6-phosphate dehydrogenase. For S9 fraction analysis, the buffer contained 0.15 mg of S9 proteins (Sigma-Aldrich, St. Louis, MO, United States), 0.3 mM NADPH, 5.6 mM glucose-6-phosphate, 0.6 units/mL glucose-6-phosphate dehydrogenase, 5.8 mM UDP-glucuronic acid, 0.05 mM acetyl-CoA, 0.5 mM dithiothreitol, 0.5 mM 3′-phosphoadenosine 5′-phosphosulfate, 1 mM glutathione, 0.2 mM acetyl carnitine, 4 units/mL carnitine acetyl transferase, 0.5 mM glycine, and 0.5 mM taurine.
Samples were kept at 37°C and aliquots were removed at 0, 5, 15, 30, 45, 60, 90, 120, 150 min after protein additions. The reaction was stopped by adding 200 µL of ice-cold acetonitrile to withdrawn aliquots. After 2 h, samples were centrifuged for 10 min at 10,000 rpm, and supernatants were subjected to LC-MS/MS analysis.
The slope of the linear regression of the curve obtained reporting the natural logarithm of compound area versus incubation time (−k) was used in the conversion to in vitro t1/2 values by t1/2 = […].
In vitro intrinsic clearance (Clint expressed as µL/min/mg) was calculated according to the following formula: Clint = Vx 0.693/t1/2 were V = volume of reaction (µL)/protein in the incubation (mg). Testosterone was used as a positive control for microsome and phase I enzymes, and 7-hydroxycoumarin was used as positive control for phase II enzymes.

The EC50 is the concentration at which the effect is half-maximal. A high value points to weaker potency. By IC50 is commonly meant the concentration that gives 50% inhibition. One may read the solubility as the dissolved amount per volume that the medium holds. A higher solubility goes with a readily soluble substance. Broadly, the microsomal CLint is the capacity of the preparation to metabolise the compound, expressed as a volume cleared per time. The low end stands for greater metabolic stability, the high end for faster metabolism. In the case of `O=C(O)c1cccc(-c2ccc(OCc3ccc4ccccc4n3)cc2)c1` [Compound 2, 4'-(quinolin-2-ylmethoxy)-[1,1′-biphenyl]-3-carboxylic acid], at human GPBAR1 (CRE luciferase), the 50% effective concentration (EC50) was found to be 4.6 ± 1.5 µM. Also, the Emax on human GPBAR1 (HEK-293T, compound 10 µM relative to TLCA (10 μM) as 100, CRE transactivation, read-out: GPBAR1 Eff (%) maximum efficacy) is 82 ± 1.2%. Further, the half-maximal inhibitory concentration (IC50) on Human CysLT1 (LTD4) was 5.6 µM and 5.67 µM. Also, in series [1], the Solubility result was “good”. This molecule also showed a solubility at 24 h in series [1] (PBS pH 7.4) of 66 µM (≈ 23.5 µg/mL). Further, in series [2], the “stability to Phase I enzymes contained in microsomal fraction” value was “highly stable”. In series [2] (pH 7.4, human liver microsomes, 1 µM), this molecule came in with a microsomal CLint at 1 µM of 4 µL/min/mg. For the same molecule, the half-life at 1 µM in series [2] (pH 7.4, human liver microsomes, 1 µM, read-out: Microsomes t1/2) amounted to 9.63 h.
